Experimental data taken from patent US20210371782A1, “METHODS FOR OPTICAL MICROPATTERNING OF HYDROGELS AND USES THEREOF” (President and Fellows of Harvard College, priority 2016, published 2021).

Assay: Solubility in water of riboflavin types
Assay type: physicochemical
Details: compared with other types of riboflavin

- solubility in water: most soluble in water
SMILES: Cc1cc2nc3c(=O)[nH]c(=O)nc-3n(C[C@H](O)[C@H](O)[C@H](O)COP(=O)(O)O)c2cc1C [riboflavin 5′ phosphate]
